Laboratory results as given in patent publication US5178662A, “Benzaldehyde acetal compounds, preparation process thereof, and herbicidal compositions containing the same as active ingredients” (Mitsui Toatsu Chemicals, Inc., priority 1990, dated 1993).

Tests used:
[1] = tested on: johnsongrass emerging from rhizome; assay: Application test on johnsongrass emerging from rhizome; assay type: in vivo; details: foliar application at stage of 4-5 leaves, application rate of active ingredient 20 (unit not given), emulsion, 50th day after spray
Procedure: (§1) Resin-made 1/1000-are pots were filled with the soil of an upland field. After they were fertilized, cotton and soybean were seeded and 3 cm soil covering was applied. In addition, amaranth, common lambs-quarters, barnyardgrass, green foxtail, large crabgrass and johnsongrass were seeded and 1 cm soil covering was applied. One day later, a wettable powder prepared from a predetermined amount of each test compound in a similar manner to the procedures described in Formulation Example 1 was diluted with water and then sprayed evenly at an application rate equal to 10 l per are onto the surface of the soil by means of a pressure-operated sprayer. The weeds and crops were allowed to grow in a green house and influence to them were observed on the 50th day after the spray. The degree of damages of each test plant and the degree of injury to each crop were determined by measuring fresh weight in each group and indicated by % calculated according to the following formula. [formula]
Resin-made 1/1000-are pots were filled with the soil of an upland field. After they were fertilized, rhizome of johnsongrass were transplanted to the pots and 3 cm soil covering was applied. They were allowed to grow in a green house. When each johnsongrass grew to the stage of 4-5 leaves, an emulsion formulated from a predetermined amount of each test compound in a similar manner to the procedures described in Formulation Example 11 was diluted with water and then sprayed at a predetermined application rate by means of a pressure-operated sprayer. The application rate was controlled at 5 l per are. The effect of each compound against the johnsongrass emerging from its rhizome was observed on the 50th day after the spray of the herbicides. The results are shown in Table 5 in which the herbicidal effect against johnsongrass is shown in a similar manner to Test 2.

[2] = tested on: Crabgrass (Digitaria adscendens); assay: Upland soil application test, large crabgrass; assay type: in vivo; details: 1200 h, soil application one day after seeding, 50 g ai/a, wettable powder, fresh weight on 50th day after spray, read-out: Herbicidal effects Crabgrass (Digitaria adscendens)
Procedure: as §1

[3] = tested on: Barnyardgrass (Echinochloa crusgalli); assay: Upland foliar application test, barnyardgrass; assay type: in vivo; details: Echinochloa crus-galli, 960 h; foliar application at stage of 2-3 leaves, 50 g ai/a, emulsion, 40th day after spray; read-out: Herbicidal effects Barnyardgrass (Echinochloa crusgalli)
Procedure: (§2) Resin-made 1/1000-are pots were filled with the soil of an upland field. After they were fertilized, cotton and soybean were seeded and 3 cm soil covering was applied. Five days later, amaranth, common lambsquarters, barnyardgrass, green foxtail, large crabgrass and johnsongrass were seeded and 1 cm soil covering was applied. They were allowed to grow in a green house. When each plant grew to the stage of 2-3 leaves, an emulsion formulated from a predetermined amount of each test compound in a similar manner to the procedures described in Formulation Example 11 was diluted with water and then sprayed at a predetermined application rate by means of a pressure-operated sprayer. The application rate was controlled at 5 l per are. Influence to the crops and weeds were observed on the 40th day after the spray of the herbicides. The results are shown in Table 4 in which the degree of damages of each test plant and the degree of injury to each crop are shown in a similar manner to Test 2.

[4] = tested on: Amaranth (Amaranthus viridis); assay: Upland soil application test, amaranth; assay type: in vivo; details: 1200 h, soil application one day after seeding, 50 g ai/a, wettable powder, fresh weight on 50th day after spray, read-out: Herbicidal effects Amaranth (Amaranthus viridis)
Procedure: as §1

[5] = tested on: Cotton (Gossypium indicum); assay: Upland soil application test, crop injury cotton; assay type: in vivo; details: soil application one day after seeding, 50 g ai/a, wettable powder, fresh weight on 50th day after spray
Procedure: as §1

[6] = tested on: Amaranth (Amaranthus viridis); assay: Upland foliar application test, amaranth; assay type: in vivo; details: 960 h, foliar application at stage of 2-3 leaves, 50 g ai/a, emulsion, 40th day after spray, read-out: Herbicidal effects Amaranth (Amaranthus viridis)
Procedure: as §1, §2

[7] = tested on: Crabgrass (Digitaria adscendens); assay: Upland foliar application test, large crabgrass; assay type: in vivo; details: 960 h, foliar application at stage of 2-3 leaves, 50 g ai/a, emulsion, 40th day after spray, read-out: Herbicidal effects Crabgrass (Digitaria adscendens)
Procedure: as §1, §2

[8] = tested on: Foxtail (Setaria viridis); assay: Upland foliar application test, green foxtail; assay type: in vivo; details: 960 h, foliar application at stage of 2-3 leaves, 50 g ai/a, emulsion, 40th day after spray, read-out: Herbicidal effects Foxtail (Setaria viridis)
Procedure: as §1, §2

[9] = tested on: common lambsquarters; assay: Upland soil application test, common lambsquarters; assay type: in vivo; details: Chenopodium album, 1200 h; soil application one day after seeding, 50 g ai/a, wettable powder, fresh weight on 50th day after spray; read-out: Herbicidal effects Common lambquarters
Procedure: as §1

[10] = tested on: Soybean (Glycine max); assay: Upland foliar application test, crop injury soybean; assay type: in vivo; details: foliar application at stage of 2-3 leaves, 50 g ai/a, emulsion, 40th day after spray
Procedure: as §2

[11] = tested on: Barnyardgrass (Echinochloa crusgalli); assay: Upland soil application test, barnyardgrass; assay type: in vivo; details: Echinochloa crus-galli, 1200 h; soil application one day after seeding, 50 g ai/a, wettable powder, fresh weight on 50th day after spray; read-out: Herbicidal effects Barnyardgrass (Echinochloa crusgalli)
Procedure: as §1

[12] = tested on: Johnsongrass; assay: Upland soil application test, johnsongrass; assay type: in vivo; details: Sorghum halepense, 1200 h; soil application one day after seeding, 50 g ai/a, wettable powder, fresh weight on 50th day after spray; read-out: Herbicidal effects Johnsongrass
Procedure: as §1

[13] = tested on: Foxtail (Setaria viridis); assay: Upland soil application test, green foxtail; assay type: in vivo; details: 1200 h, soil application one day after seeding, 50 g ai/a, wettable powder, fresh weight on 50th day after spray, read-out: Herbicidal effects Foxtail (Setaria viridis)
Procedure: as §1

[14] = tested on: ALS (acetolactate syntase) from barnyardgrass seedlings; assay: ALS (acetolactate syntase) inhibition test, barnyardgrass enzyme; assay type: biochemical; details: 10,000 ppm (0.5 μg/0.5 ml) of compound; 1 hour at 30° C.; absorbance at 525 nm
Procedure: (§3) To determine the selectivity in enzyme level between crops and weeds, an ALS inhibition test was conducted using pea as a typical broadleaf crop and barnyardgrass as a representative gramineous weeds.
(§4) After seeds of pea and barnyardgrass were allowed to germinate at 25° C. for 8-14 days in a dark place, partially-purified suspensions (Suspensions A) of acetolactate syntase were separately obtained from the seedlings in accordance with the procedures described in the literature, Plant Physiology, 75, 827-831. In a test tube, 0.5 mg of one of test compounds was weighed, followed by the addition of 0.15 ml of a 20 mM K2 HPO4 solution and 0.25 ml of a reaction substrate medium which consisted of 40 mM of K2 HPO4, 40 mM of sodium pyruvate, 1 mM of TPP, 1 mM of MgCl2 and 20 μM of FAD so that 0.4 ml of a reaction solution (Solution B) was prepared. Added to 0.4 ml of Solution B was 0.1 ml of Suspension A. After the resultant mixture was shaken for 1 hour in a thermostat water bath controlled at 30° C., 50 μl of 6N sulfuric acid were added to terminate the reaction.
(§5) Next, the test tube with the reaction-terminated liquid mixture contained therein was transferred into a thermostat water bath controlled at 60° C. and was heated for 15 minutes. Thereafter, 0.5 ml of a 0.5% creatine solution and 0.5 ml of a 5% alkaline α-naphthol solution were added, and the resultant mixture was maintained at 60° C. for 15 minutes. As a result, the test solution developed a pink-to-red color. After the above operation, the absorbance of the test solution at 525 nm was measured by a spectrophotometer (Absorbance 1 of Test Compound).
(§6) Further, the absorbance (Absorbance 2 of Blank) of a solution obtained by subjecting a portion of Solution B to the above procedures without addition of any test compound and the absorbance (Absorbance 3 of sulfuric acid) of another solution obtained by subjecting another portion of Solution B to the above procedures which using 50 μl of 6N sulfuric acid as a test compound were also measured.

[15] = tested on: Soybean (Glycine max); assay: Upland soil application test, crop injury soybean; assay type: in vivo; details: soil application one day after seeding, 50 g ai/a, wettable powder, fresh weight on 50th day after spray
Procedure: as §1

[16] = tested on: Cotton (Gossypium indicum); assay: Upland foliar application test, crop injury cotton; assay type: in vivo; details: foliar application at stage of 2-3 leaves, 50 g ai/a, emulsion, 40th day after spray
Procedure: as §1, §2

[17] = tested on: ALS (acetolactate syntase) from pea seedlings; assay: ALS (acetolactate syntase) inhibition test, pea enzyme; assay type: biochemical; details: 10,000 ppm (0.5 μg/0.5 ml) of compound; 1 hour at 30° C.; absorbance at 525 nm
Procedure: as §3, §4, §5, §6

[18] = tested on: common lambsquarters; assay: Upland foliar application test, common lambsquarters; assay type: in vivo; details: Chenopodium album, 960 h; foliar application at stage of 2-3 leaves, 50 g ai/a, emulsion, 40th day after spray; read-out: Herbicidal effects Common lambquarters
Procedure: as §2

[19] = tested on: Johnsongrass; assay: Upland foliar application test, johnsongrass; assay type: in vivo; details: Sorghum halepense, 960 h; foliar application at stage of 2-3 leaves, 50 g ai/a, emulsion, 40th day after spray; read-out: Herbicidal effects Johnsongrass
Procedure: as §2

Row | SMILES | Herbicidal effect against johnsongrass emerging from rhizome [1] | pest or weed control at 5000 g/ha [2] | pest or weed control at 5000 g/ha [3] | pest or weed control at 5000 g/ha [4] | Crop injury Cotton (Gossypium indicum) [5] | pest or weed control at 5000 g/ha [6] | pest or weed control at 5000 g/ha [7] | pest or weed control at 5000 g/ha [8] | pest or weed control at 5000 g/ha [9] | Crop injury Soybean (Glycine max) [10] | pest or weed control at 5000 g/ha [11] | pest or weed control at 5000 g/ha [12] | pest or weed control at 5000 g/ha [13] | Enzymoreaction inhibition rate (%) Barnyardgrass [14] | Crop injury Soybean (Glycine max) [15] | Crop injury Cotton (Gossypium indicum) [16] | Enzymoreaction inhibition rate (%) Pea [17] | pest or weed control at 5000 g/ha [18] | pest or weed control at 5000 g/ha [19]
1 | COc1cc(OC)nc(Oc2ccccc2C=O)n1 [Comp. Comp'd B, reference compound] | 35% | 100% | 100% | 80% | 100% | 80% | 100% | 100% | 85% | 100% | 100% | 100% | 100% | 98% | 100% | 100% | 92% | 80% | 100%
2 | CCOC(OCC)c1ccccc1Oc1nc(OC)cc(OC)n1 [Comp. Comp'd D, 2-(4,6-dimethoxypyrimidin-2-yloxy)benzaldehyde diethylacetal, reference compound] | 50% | 85% | 100% | 100% | 45% | 100% | 90% | 95% | 100% | 35% | 100% | 100% | 100% | – | 40% | 35% | – | 90% | 100%
